Measured values: US20060258535A1, “METHOD OF USING SODIUM CARBONATE PEROXYHYDRATE AS AN HERBICIDE” (BIOSAFE SYSTEMS L.L.C.,, priority 2005, published 2006)

Tests used:
[1] = system: algae, bacteria, fungi, viruses and bryophyte plant material such as mosses, liverworts, hornworts, lichens; assay: 1% spray solution on simple celled plant material; type: in vivo
From the text: The pH of the resulting solution is typically alkaline, which activates the H2O2 for bleaching. The dry powder contains about 30% by weight w/w H2O2 and finds specialty use as a wood brightener and general cleaning aid.

[2] = EPA determination; cited from earlier work
[3] = system: most types of plant material; assay: Spray solution over the tops of growing plant material; type: in vivo; conditions: diluted in water, sprayed over the tops of growing plant material, no foam
[4] = EPA determination; cited from earlier work; remark: listed apart in the source
[5] = EPA determination, cited from earlier work
[6] = EPA determination; cited from earlier work; remark: listed apart in the source

Structure (SMILES): O=C([O-])[O-].O=C([O-])[O-].OO.OO.OO.[Na+].[Na+].[Na+].[Na+] [sodium carbonate peroxyhydrate]
- effect on simple celled plant material [1]: kill on contact
- dermal sensitizer [2]: not considered a dermal sensitizer
- phytotoxicity effects of spray solution [3]: minimal with some plant cell necrosis
- dermal irritation [4]: Dermal irritation also occurred
- toxicity, dermal exposure ([5]; dermal exposure): minimal to mild toxicity
- toxicity, oral exposure ([5]; oral exposure): minimal to mild toxicity
- eye damage [6]: severe irreversible eye damage
